Where a SMILES comes first, the peptide text is derived from it. The star is where a group is joined. Cbz = O=C(OCc1ccccc1)*
Tests used:
Type in all cases: cell-based
[1] = tested on: human iPSC-neurons; assay: Detection of protein aggregates on neuronal microtubules; settings: 4° C. for 4 h, pre-incubation
Experimental: After treatments, cultured neurons were fixed with 4% paraformaldehyde for 10 minutes and then permeabilized and washed with 0.1% Triton X-100 in phosphate buffered saline. Protein aggregates were visualized by a dye that intercalates into the denatured and aggregated proteins and becomes fluorescent (Proteostat aggresome detection kit, Enzo, Farmingdale, N.Y.; see Table 2) (Shen, 2011). For accumulation of protein aggregates on the neuronal microtubules, cells were stained with TUBB3 antibody and the protein aggregate dye, and images (188.94 μm×188.94 μm) were taken. In each image, the number of protein aggregates residing on the microtubules was counted and divided by the total length of the TUBB3+ microtubule paths.

[2] = tested on: human iPSC-neurons; assay: Evaluation of neuronal microtubule stability in response to cold (tubulin immunofluorescence, TUBB3+ microtubule tracing)
Experimental: The temperature-dependent experiments in this study were performed at ambient CO2 concentration, which required the use of hibernate-medium (Table 2) to maintain the physiological pH. Experiments were conducted by first incubating cultured neurons (human iPSC-derived, GS iPSC-derived, GS primary, or rat primary cultures) in hibernate-medium for 30 min at room temperature. During this time (pre-incubation), drug treatments (see Other Reagents, Table 1) were introduced to test cold resistance and microtubule stability. The cell culture dishes were then kept in an ambient 37° C. incubator, or in a 4° C. refrigerator. […] The pH of hibernate-medium was stable and maintained the pH between 7.0 and 7.4 even after 16-h incubation at 4° C.
Cultured neurons or rat retinal explants with or without treatments were fixed with 4% paraformaldehyde, permeabilized and washed with 0.1% Triton X-100 in phosphate buffered saline, and stained by antibodies against TUBB3. TUBB3+ microtubule paths in images of 188.94×188.94 μm^2 from human iPSC-derived neuronal cultures and images of 67.48×67.48 μm^2 from rat whole-mount retinas were traced with the ‘Simple Neurite Tracer’ plugin in ImageJ.

[3] = tested on: rat retinal ganglion cells (RGCs); assay: Multielectrode array (MEA) recordings of RGC activity in cold-exposed rat retina explants; settings: 4° C. for 4 h, Taxol 10 μM
Experimental: All experiments were carried out under dim red light. Rat retina explants were removed and cut into smaller pieces in hibernate-medium, and divided into different treatment groups for pre-incubation with drugs promoting microtubule stability or a DMSO vehicle control at room temperature for 30 minutes. The cold-exposed groups were incubated in the refrigerator, while the fresh control samples were incubated on the bench in dark at room temperature. […] After 4- or 24-hour incubation, the cold-exposed retinal explants were placed on the bench for 10-15 minutes, and washed twice with fresh hibernate-medium. Retinal explants from all groups were then transferred to oxygenated (95% O2/5% CO2) bicarbonate-buffered AMES medium at room temperature. The sclera and RPE were removed prior to flat mounting the neural retina with the ganglion cell (RGC)-side facing down onto the MEA.
During MEA recording, the neural retinas were perfused with 95% O2/5% CO2-balanced AMES perfusion at 37° C. to measure the spontaneous firing activity of the rat RGCs over the course of 15 minutes. […] For MEA data processing and analyses, the firing spikes of RGCs were first filtered and recorded in MC Rack with a high-pass filter set at 200 Hz, a low-pass filter set at 3000 Hz, and the automatic standard deviation for spike detection threshold was set at −6. […]

[4] = tested on: human iPSC-neurons; assay: Live cell imaging of lysosomes using Magic Red and DND-26 (lysosomal membrane permeabilization, LMP); settings: 4-h at 4° C.
Experimental: GS and Human iPSC-derived neuronal cultures were prepared in duplicate and incubated with hibernate-medium containing Magic Red (1:1000; ImmunoChemistry Technologies, Bloomington, Minn.) at 37° C. for 25 min, followed by the addition of LysoTracker Green DND-26 (50 nM; Thermo Fisher, Waltham, Mass.; see Table 1) for 5 min. The dye-containing medium was then replaced with fresh hibernate-medium, and one group of cultures was incubated at 4° C. for 1, 4 or 16 h, while the other group remained at 37° C. serving as normal controls. The cold-exposed group was subjected to confocal imaging at various temperatures (10° C., room temperature, or 37° C.), while the control group was imaged at either room temperature or 37° C. […] Magic Red becomes fluorescent after being cleaved by the lysosomal protease cathepsin B, while DND-26 is an acidotropic probe that accumulates in the acidic lysosomal vesicles. When LMP occurs, Magic Red and DND-26 signals become diffused within the cytoplasm of the affected cells. It was determined that cells have LMP if they contain a single Magic Red-stained particle of diameter >5 μm, which is about the size of the neuronal cell nucleus.

## CC(C)C[C@@H](C=O)NC(=O)[C@H](CC(C)C)NC(=O)[C@H](CC(C)C)NC(=O)OCc1ccccc1 [MG-132] (Cbz-Leu-Leu-Leu-aldehyde)
[1]
  protein aggregates along microtubule processes: did not show any further increase in aggregation

## CCOC(=O)c1ccc(N2NC(=O)/C(=C/c3ccc([N+](=O)[O-])o3)C2=O)cc1 [PYR-41]
[2]; human iPSC-neurons, 4-h incubation at 4° C.
  microtubule morphology after pre-treatment with ubiquitination inhibitor: did not improve microtubule morphology

## CC(=O)O[C@H]1C(=O)[C@@]2(C)[C@H]([C@H](OC(=O)c3ccccc3)[C@]3(O)C[C@H](OC(=O)[C@H](O)[C@@H](NC(=O)c4ccccc4)c4ccccc4)C(C)=C1C3(C)C)[C@]1(OC(C)=O)CO[C@@H]1C[C@@H]2O [Taxol]
[2]; human iPSC-neurons at 4° C., 10 μM (FIG. 6B)
  preservation of microtubules in cold: preserved microtubules in cold
[2]; human iPSC-neurons, 16-h cold exposure, 0.1 μM
  protection of neuronal microtubules, low dose: did not protect
[3]
  spontaneous RGC activity / firing rate distributions (MEA): did not preserve RGC activity

## O=C1O[C@H]([C@@H](O)CO)C(O)=C1O [vitamin C, ascorbic acid]
[4]
  LMP (number of cells containing diffuse Magic Red): alleviated LMP

Reference: patent US11547708B2, “Compositions and methods to protect mammalian tissue against cold and other metabolic stresses” (THE UNITED STATES OF AMERICA, AS REPRESENTED BY THE …, priority 2017, dated 2023)
